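Protocol summary: plate cells (96-well), add compound at 5 concentrations, incubate 48 h, interpolate endpoints linearly. GI50 marks 50% less growth.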 Active and inactive are the calls of the source. Cut-off read from the data, not from the text of the source: active = GI50 up to about 1.1 µM and inactive = higher.
Tests used:
Experiment in all cases: DTP human tumour cell line panel, 48 h
[1] = test system: OVCAR-4
[2] = test system: A498
[3] = test system: 786-0
[4] = test system: MOLT-4
[5] = test system: CAKI-1
[6] = test system: HCT-116
[7] = test system: IGROV-1
[8] = test system: UO-31
[9] = test system: NCI-H23
[10] = test system: SNB-19
[11] = test system: Hs-578T
[12] = test system: COLO 205
[13] = test system: SK-MEL-28
[14] = test system: SF-295
[15] = test system: MDA-N
[16] = test system: MCF7
[17] = test system: Malme-3M
[18] = test system: NCI-H226
[19] = test system: NCI/ADR-RES
[20] = test system: T47D

Row | Structure (SMILES) | GI50 [1] | GI50 [2] | GI50 [3] | GI50 [4] | GI50 [5] | GI50 [6] | GI50 [7] | GI50 [8] | GI50 [9] | GI50 [10] | GI50 [11] | GI50 [12] | GI50 [13] | GI50 [14] | GI50 [15] | GI50 [16] | GI50 [17] | GI50 [18] | GI50 [19] | GI50 [20]
1 | CC(C)(C)/N=c1/n(C(C)(C)C)oc(=O)n1C(C)(C)C | > 100 µM (inactive) | > 100 µM (inactive) | > 100 µM (inactive) | > 100 µM (inactive) | > 100 µM (inactive) | > 100 µM (inactive) | > 100 µM (inactive) | > 100 µM (inactive) | 81.1 µM (inactive) | > 100 µM (inactive) | > 100 µM (inactive) | > 100 µM (inactive) | > 100 µM (inactive) | > 100 µM (inactive) | > 100 µM (inactive) | > 100 µM (inactive) | > 100 µM (inactive) | > 100 µM (inactive) | > 100 µM (inactive) | –
2 | CCOC(=O)c1cn(-c2ccccc2)c(=S)n2c1nc1ccccc12 | 37.4 µM (inactive) | 23.9 µM (inactive) | 43.4 µM (inactive) | 4.65 µM (inactive) | 49 µM (inactive) | 42.6 µM (inactive) | 42.5 µM (inactive) | 7.67 µM (inactive) | 45.7 µM (inactive) | > 66.2 µM (inactive) | – | 30.3 µM (inactive) | 28.2 µM (inactive) | 71.8 µM (inactive) | 41.1 µM (inactive) | 35.5 µM (inactive) | – | 27.3 µM (inactive) | 25.5 µM (inactive) | 80 µM (inactive)
3 | CC(=O)Oc1ccc2c(c1)oc1c3ccc(OC(C)=O)cc3n(C)c(=O)c21 | – | – | 1.15 µM (inactive) | 25.1 µM (inactive) | – | 20.9 µM (inactive) | 29.9 µM (inactive) | 50.1 µM (inactive) | 46.3 µM (inactive) | > 100 µM (inactive) | 4.48 µM (inactive) | 21.6 µM (inactive) | 16.3 µM (inactive) | 36.7 µM (inactive) | 32 µM (inactive) | 35.6 µM (inactive) | 6.47 µM (inactive) | 10.2 µM (inactive) | 15.7 µM (inactive) | 34.8 µM (inactive)
4 | CCOC(=O)/C(=C\NC(C)(C)C)c1nc2ccccc2o1 | 31.4 µM (inactive) | 27.9 µM (inactive) | 24.6 µM (inactive) | – | 60.4 µM (inactive) | 37.3 µM (inactive) | 51.9 µM (inactive) | 0.124 µM (active) | 34.9 µM (inactive) | 64 µM (inactive) | 28.3 µM (inactive) | 21.3 µM (inactive) | 36.5 µM (inactive) | 34 µM (inactive) | 32 µM (inactive) | 29.3 µM (inactive) | 35.7 µM (inactive) | 20.9 µM (inactive) | 35.6 µM (inactive) | –
5 | Cc1ccc(S(=O)(=O)n2c3c(c4ccccc42)CCN2C[C@H]([C@H](C)Br)CC[C@@H]32)cc1 | > 100 µM (inactive) | > 100 µM (inactive) | > 100 µM (inactive) | 67.1 µM (inactive) | > 100 µM (inactive) | – | > 100 µM (inactive) | > 100 µM (inactive) | > 100 µM (inactive) | > 100 µM (inactive) | – | > 100 µM (inactive) | > 100 µM (inactive) | > 100 µM (inactive) | > 100 µM (inactive) | 91.8 µM (inactive) | > 100 µM (inactive) | > 100 µM (inactive) | > 100 µM (inactive) | > 100 µM (inactive)
6 | Cc1nn(C)c2c1C(=O)N(C)CC(=O)N2C | > 100 µM (inactive) | > 100 µM (inactive) | > 100 µM (inactive) | > 100 µM (inactive) | > 100 µM (inactive) | > 100 µM (inactive) | > 100 µM (inactive) | > 100 µM (inactive) | > 100 µM (inactive) | > 100 µM (inactive) | > 100 µM (inactive) | > 100 µM (inactive) | > 100 µM (inactive) | > 100 µM (inactive) | > 100 µM (inactive) | > 100 µM (inactive) | > 100 µM (inactive) | – | – | –
7 | CC(=O)OC1(C)C=CC(=O)C=C1 | 53.5 µM (inactive) | 31.6 µM (inactive) | 23.4 µM (inactive) | 30.3 µM (inactive) | 46 µM (inactive) | 80.2 µM (inactive) | 12.9 µM (inactive) | 23.9 µM (inactive) | 27.5 µM (inactive) | 48.2 µM (inactive) | 61.7 µM (inactive) | > 100 µM (inactive) | 23.6 µM (inactive) | 37.2 µM (inactive) | 31.2 µM (inactive) | 20.4 µM (inactive) | – | 26.2 µM (inactive) | 6.3 µM (inactive) | –
8 | CC(=O)O[C@H]1C[C@@H](OC(C)=O)[C@@](C)(O)[C@@H]2[C@@H](OC(C)=O)[C@@]3(O)[C@H](/C=C(/CCl)[C@H]4O[C@H]4[C@@H](OC(C)=O)[C@@]12C)OC(=O)[C@@H]3C | > 25 µM (inactive) | > 25 µM (inactive) | > 25 µM (inactive) | > 25 µM (inactive) | > 25 µM (inactive) | > 25 µM (inactive) | > 25 µM (inactive) | > 25 µM (inactive) | > 25 µM (inactive) | > 25 µM (inactive) | > 25 µM (inactive) | > 25 µM (inactive) | 17.4 µM (inactive) | 17.7 µM (inactive) | 12 µM (inactive) | – | > 25 µM (inactive) | > 25 µM (inactive) | > 25 µM (inactive) | > 25 µM (inactive)
9 | CCC1OC2C(CC=C(C)C)=C3OC(C)(O)C(C)(CC)C(OC(C)=O)C3=C3OC(=O)C=C1C32 (centres undefined) | 32.4 µM (inactive) | 36.7 µM (inactive) | 37.7 µM (inactive) | 22.7 µM (inactive) | 28.2 µM (inactive) | 25.7 µM (inactive) | 26.4 µM (inactive) | 22.6 µM (inactive) | 27.7 µM (inactive) | 28.1 µM (inactive) | 39.7 µM (inactive) | 28.2 µM (inactive) | 24.7 µM (inactive) | 17.8 µM (inactive) | – | 30.1 µM (inactive) | 21.4 µM (inactive) | – | 29.6 µM (inactive) | 37.8 µM (inactive)
10 | COc1cccc(C=C(C#N)C#N)c1OC | > 100 µM (inactive) | – | > 100 µM (inactive) | > 100 µM (inactive) | > 100 µM (inactive) | > 100 µM (inactive) | > 100 µM (inactive) | > 100 µM (inactive) | > 100 µM (inactive) | > 100 µM (inactive) | – | > 100 µM (inactive) | > 100 µM (inactive) | > 100 µM (inactive) | > 100 µM (inactive) | > 100 µM (inactive) | > 100 µM (inactive) | > 100 µM (inactive) | > 100 µM (inactive) | –
11 | CCOC(=O)c1cc(-c2ccc([N+](=O)[O-])cc2)c([N+](=O)[O-])[nH]1 | 4.23 µM (inactive) | – | 3.52 µM (inactive) | 3.77 µM (inactive) | – | 4.85 µM (inactive) | 5.26 µM (inactive) | 2.42 µM (inactive) | 2.84 µM (inactive) | 2.91 µM (inactive) | 3.34 µM (inactive) | – | – | 2.1 µM (inactive) | – | – | > 10 µM (inactive) | 1.46 µM (inactive) | 3.1 µM (inactive) | 2.33 µM (inactive)
12 | CC(Cc1ccc(O)cn1)(NC(=O)c1ccccc1)C(=O)O (centres undefined) | > 100 µM (inactive) | – | > 100 µM (inactive) | > 100 µM (inactive) | > 100 µM (inactive) | > 100 µM (inactive) | > 100 µM (inactive) | > 100 µM (inactive) | > 100 µM (inactive) | > 100 µM (inactive) | > 100 µM (inactive) | > 100 µM (inactive) | > 100 µM (inactive) | > 100 µM (inactive) | > 100 µM (inactive) | – | > 100 µM (inactive) | > 100 µM (inactive) | > 100 µM (inactive) | –
13 | C[C@]12CC/C(=N\O)C=C1CC[C@@H]1[C@@H]2CC[C@]2(C)C(=N/O)/C(=C/c3cccnc3)C[C@@H]12 | 18.1 µM (inactive) | 14.5 µM (inactive) | 28.4 µM (inactive) | 0.546 µM (active) | – | 17.5 µM (inactive) | 30.4 µM (inactive) | 4.9 µM (inactive) | 32.6 µM (inactive) | 23.4 µM (inactive) | 3.63 µM (inactive) | 17.2 µM (inactive) | 16.9 µM (inactive) | 6.95 µM (inactive) | 12.5 µM (inactive) | 6.97 µM (inactive) | 17.8 µM (inactive) | 3.63 µM (inactive) | 14.3 µM (inactive) | –
14 | CCSc1[nH]c(NC(=S)NC(=O)c2ccccc2Cl)c(C(N)=O)c1C(N)=O | > 10 µM (inactive) | – | > 10 µM (inactive) | > 10 µM (inactive) | > 10 µM (inactive) | – | > 10 µM (inactive) | – | > 10 µM (inactive) | – | – | > 10 µM (inactive) | > 10 µM (inactive) | > 10 µM (inactive) | > 10 µM (inactive) | > 10 µM (inactive) | > 10 µM (inactive) | – | – | > 10 µM (inactive)
15 | O=C1CCCC[C@H]1C(O)CC1CC(=O)N(c2ccccc2)C(=O)C1 (some centres undefined) | > 100 µM (inactive) | > 100 µM (inactive) | > 100 µM (inactive) | > 100 µM (inactive) | > 100 µM (inactive) | > 100 µM (inactive) | > 100 µM (inactive) | > 100 µM (inactive) | > 100 µM (inactive) | > 100 µM (inactive) | > 100 µM (inactive) | – | > 100 µM (inactive) | > 100 µM (inactive) | > 100 µM (inactive) | > 100 µM (inactive) | > 100 µM (inactive) | > 100 µM (inactive) | > 100 µM (inactive) | –

— ChEMBL document CHEMBL1201862, “PubChem BioAssay data set” (2004)
